# Where two headings read alike, the source gives them in different places.
# How the values were obtained:
# [1] = test system: E. coli WT-3 [gyrA(S83L,D87G)]; test: microbe, parasite or virus in culture; type: cell-based; settings: for MIC: Escherichia coli, read-out: MIC E. coli WT-3 [gyrA(S83L,D87G)]
# Summary of the method: (§1)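 Overnight cultures were diluted in cation-adjusted Müller-Hinton broth to 10^4-10^6 cfu/mL and grown with serially diluted compounds (from DMSO stocks) for approx. 16 h at 30-37° C. MIC is the lowest concentration giving no visible growth.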
# E. coli WT = test: MIC, microbroth dilution susceptibility assay; type: cell-based; settings: for MIC: Escherichia coli, large panel, Table 2a
# Summary of the method: as §1
# A. baumannii = test: MIC, microbroth dilution susceptibility assay (Table 2b); type: cell-based; settings: larger panel
# Description: (§2) Cystobactamid derivatives synthesized were tested against relevant Gram negative and positive bacteria of clinical interest. Experimental procedures used for the biological characterization of the compounds are the same as previously described in WO 2016/082934.
# (§3) Bacterial strains used in susceptibility assays (minimum inhibitory concentration, MIC) were either part of our internal strain collection or purchased from the German Collection of Microorganisms and Cell Cultures (Deutsche Sammlung von Mikroorganismen und Zellkulturen, DSMZ) and the American Type Culture Collection (ATCC). The susceptible E. coli strain (WT) and fluoroquinolone-resistant mutants E. coli WT-3 and WT-III were kindly provided by Prof Dr. P. Heisig, Pharmaceutical Biology and Microbiology, University of Hamburg, Germany. The efflux-deficient strain P. aeruginosa ΔmexAB was kindly provided by Prof Dr. S. Häußler, Institute for Molecular Bacteriology, TWINCORE, Hannover, Germany. All compounds were prepared as DMSO stocks and MIC values were determined in standard microbroth dilution assays in 96-well MTPs as described in Baumann et al., Angew Chem Int Ed Engl. 2014; 53(52):14605-9. In brief, overnight cultures of bacteria were diluted in either tryptic soy broth (TSB: 1.7% peptone casein, 0.3% peptone soymeal, 0.25% glucose, 0.5% NaCl, 0.25% K2HPO4; pH 7.3; S. pneumoniae and E. faecalis) or cation-adjusted Müller-Hinton Broth (BBL™, BD; all other bacteria) and adjusted to 10^4-10^6 cfu/mL. Bacteria were grown in the presence of the derivatives in serial dilution for approx. 16 h at 30-37° C. MIC values were determined and were defined as the antibiotic concentration at which no visual growth of bacteria was observed.
# C. freundii = test: as above; type: cell-based; settings: larger panel
# Description: as §2, §3
# E. aerogenes = test: as above; type: cell-based; settings: larger panel
# Description: as §2, §3
# E. cloacae = test: as above; type: cell-based; settings: larger panel
# Description: as §2, §3
# E. faecalis = test: as above; type: cell-based; settings: larger panel
# Description: as §2, §3
# K. pneumoniae = test: as above; type: cell-based; settings: larger panel
# Description: as §2, §3
# P. aeruginosa ESBL 1 = test: as above; type: cell-based; settings: larger panel
# Description: as §2, §3
# P. aeruginosa ESBL 2 = test: as above; type: cell-based; settings: larger panel
# Description: as §2, §3
# P. mirabilis = test: as above; type: cell-based; settings: larger panel
# Description: as §2, §3
# P. vulgaris = test: as above; type: cell-based; settings: larger panel
# Description: as §2, §3
# S. epidermidis = test: as above; type: cell-based; settings: larger panel
# Description: as §2, §3
# S. marcescens = test: as above; type: cell-based; settings: larger panel
# Description: as §2, §3
# E. coli ΔtolC = test: microbe, parasite or virus in culture; type: cell-based; settings: Escherichia coli, 16 h, read-out: MIC E. coli ΔtolC, small panel, Tables 1a/1b; no visual growth after approx. 16 h
# Summary of the method: as §1
# P. aeruginosa ΔmexAB = test: microbe, parasite or virus in culture; type: cell-based; settings: Pseudomonas aeruginosa, 16 h, read-out: MIC P. aeruginosa ΔmexAB, efflux-deficient strain; small panel, Tables 1a/1b
# Summary of the method: as §1
# A. baumannii DSM-30008 = test: MIC, microbroth dilution susceptibility assay; type: cell-based; settings: Acinetobacter baumannii, DSM30008; large panel, Table 2a
# Summary of the method: as §1
# C. freundii DSM-30039 = test: MIC, microbroth dilution susceptibility assay; type: cell-based; settings: Citrobacter freundii, DSM30039; large panel, Table 2a
# Summary of the method: as §1
# E. aerogenes DSM-30053 = test: MIC, microbroth dilution susceptibility assay; type: cell-based; settings: Klebsiella aerogenes, DSM30053; large panel, Table 2a
# Summary of the method: as §1
# E. cloacae DSM-30054 = test: MIC, microbroth dilution susceptibility assay; type: cell-based; settings: Enterobacter cloacae, DSM30054; large panel, Table 2a
# Summary of the method: as §1
# E. coli WT DSM-1116 = test: MIC, microbroth dilution susceptibility assay; type: cell-based; settings: Escherichia coli, no visual growth after approx. 16 h
# Summary of the method: as §1
# E. faecalis ATCC-29212 = test: MIC, microbroth dilution susceptibility assay; type: cell-based; settings: Enterococcus faecalis, ATCC29212; large panel, Table 2a; TSB
# Summary of the method: as §1
# K. pneumoniae DSM-30104 = test: MIC, microbroth dilution susceptibility assay; type: cell-based; settings: Klebsiella pneumoniae, DSM30104; large panel, Table 2a
# Summary of the method: as §1
# P. aeruginosa DSM-24600 = test: MIC, microbroth dilution susceptibility assay; type: cell-based; settings: Pseudomonas aeruginosa, DSM24600; large panel, Table 2a
# Summary of the method: as §1
# P. aeruginosa DSM-46316 = test: MIC, microbroth dilution susceptibility assay; type: cell-based; settings: Pseudomonas aeruginosa, DSM46316; large panel, Table 2a
# Summary of the method: as §1
# P. aeruginosa WT PA14 = test: MIC, microbroth dilution susceptibility assay; type: cell-based; settings: Pseudomonas aeruginosa
# Summary of the method: as §1
# P. mirabilis DSM-2140 = test: MIC, microbroth dilution susceptibility assay; type: cell-based; settings: Proteus mirabilis, DSM2140; large panel, Table 2a
# Summary of the method: as §1
# P. vulgaris DSM-2140 = test: MIC, microbroth dilution susceptibility assay; type: cell-based; settings: Proteus vulgaris, DSM2140; large panel, Table 2a
# Summary of the method: as §1
# S. aureus ATCC-29213 = test: MIC, microbroth dilution susceptibility assay; type: cell-based; settings: Staphylococcus aureus, ATCC29213; large panel, Table 2a
# Summary of the method: as §1
# S. aureus Newman = test: MIC, microbroth dilution susceptibility assay; type: cell-based; settings: Staphylococcus aureus, NEWMAN, read-out: MIC S. aureus Newman
# Summary of the method: as §1
# S. epidermidis DSM-28765 = test: MIC, microbroth dilution susceptibility assay; type: cell-based; settings: Staphylococcus epidermidis, DSM28765; large panel, Table 2a
# Summary of the method: as §1
# S. marcescens DSM-30121 = test: MIC, microbroth dilution susceptibility assay; type: cell-based; settings: Serratia marcescens, DSM30121; large panel, Table 2a
# Summary of the method: as §1
# S. pneumoniae DSM-20566 = test: MIC, microbroth dilution susceptibility assay; type: cell-based; settings: Streptococcus pneumoniae, DSM20566; large panel, Table 2a; TSB
# Summary of the method: as §1
# E. coli gyrase = target: T1, E. coli gyrase (Escherichia coli, UniProt P0AES4+P0AES6); test: E. coli gyrase supercoiling (sc) assay; type: biochemical; settings: supercoiling assay kit, agarose gel quantification; read-out: Ec gyrase sc IC50
# T1 construct: purchased Inspiralis
# Description: The target activity on E. coli gyrase was assessed as described in Baumann et al., Angew Chem Int Ed Engl. 2014; 53(52):14605-9 using a commercial supercoiling (sc) assay kit from Inspiralis according to the manufacturer's instructions. The samples were separated on 0.8% (w/v) agarose gels and relaxed and supercoiled plasmid was visualized by ethidium bromide staining. Half-inhibitory concentrations (IC50) were calculated after image analysis and quantification (ImageJ) based on sigmoidal curve fitting (OriginPro).
# [2] = test system: E. coli WT-III [marRΔ74bp]; type: cell-based; settings: fluoroquinolone-resistant mutant; Table 2a
# Description: as §2, §3
# [3] = DSM1116, small panel, Tables 1a/1b, read-out: MIC E. coli WT DSM-1116
# [4] = PA14, small panel, Tables 1a/1b, read-out: MIC P. aeruginosa WT PA14
# [5] = DSM1116, 16 h, read-out: MIC E. coli WT DSM-1116, small panel, Tables 1a/1b
# [6] = PA14, read-out: MIC P. aeruginosa WT PA14
Structure (SMILES),MIC [1] [µg/mL],MIC (E. coli ΔtolC) [µg/mL],MIC (P. aeruginosa ΔmexAB) [µg/mL],MIC (A. baumannii DSM-30008) [µg/mL],MIC (C. freundii DSM-30039) [µg/mL],MIC (E. aerogenes DSM-30053) [µg/mL],MIC (E. cloacae DSM-30054) [µg/mL],MIC (E. coli WT DSM-1116; [3]) [µg/mL],MIC (E. coli WT) [µg/mL],MIC (E. faecalis ATCC-29212) [µg/mL],MIC (K. pneumoniae DSM-30104) [µg/mL],MIC (P. aeruginosa DSM-24600) [µg/mL],MIC (P. aeruginosa DSM-46316) [µg/mL],MIC (P. aeruginosa WT PA14; [4]) [µg/mL],MIC (P. mirabilis DSM-2140) [µg/mL],MIC (P. vulgaris DSM-2140) [µg/mL],MIC (S. aureus ATCC-29213) [µg/mL],"MIC (S. aureus Newman; small panel, Tables 1a/1b) [µg/mL]",IC50 (E. coli gyrase) [nM],MIC (E. coli WT DSM-1116; [5]) [µg/mL],also measured
"COc1c(NC(=O)c2ccc(NC(=O)c3ccc(NC(=O)[C@H](CC#N)NC(=O)c4ccc(NC(=O)/C(C)=C/c5ccc(O)cc5)cc4)cc3)c(OC)c2O)ccc(C(=O)O)c1O [Alb, Albicidin, reference compound]",,,,,,,,,,,,,,,,,,,,,"MIC E. coli WT-3 [gyrA(S83L, D87G)] ([1]; larger panel, Table 2b): 0.06 µg/mL; MIC E. coli WT (E. coli WT; larger panel, Table 2b): 0.06 µg/mL; MIC A. baumannii (A. baumannii): >64 µg/mL; MIC C. freundii (C. freundii): <0.03 µg/mL; MIC E. aerogenes (E. aerogenes): >64 µg/mL; MIC E. cloacae (E. cloacae): >64 µg/mL; MIC E. faecalis (E. faecalis): 4 µg/mL; MIC K. pneumoniae (K. pneumoniae): >64 µg/mL; MIC P. aeruginosa ESBL 1 (P. aeruginosa ESBL 1): 16 µg/mL; MIC P. aeruginosa ESBL 2 (P. aeruginosa ESBL 2): 16 µg/mL; MIC P. mirabilis (P. mirabilis): >64 µg/mL; MIC P. vulgaris (P. vulgaris): <0.03 µg/mL; MIC S. epidermidis (S. epidermidis): 0.5 µg/mL; MIC S. marcescens (S. marcescens): >64 µg/mL"
"CC(C)Oc1c(NC(=O)c2ccc(NC(=O)[C@H](CC(N)=O)NC(=O)c3ccc(NC(=O)c4ccc([N+](=O)[O-])cc4)cc3)cc2)ccc(C(=O)Nc2ccc(C(=O)O)cc2)c1O [Compound 28, (S)-4-(4-(4-(4-amino-2-(4-(4-nitrobenzamido)benzamido)-4-oxobutanamido)benzamido)-2-hydroxy-3-isopropoxybenzamido)benzoic acid]",0.25,0.06,1,0.25,0.06,> 64,0.25,0.13,0.06,2,> 64,> 64,> 64,> 64,> 64,0.13,0.5,0.5,110,,MIC (S. epidermidis DSM-28765): 1 µg/mL; MIC (S. marcescens DSM-30121): > 64 µg/mL; MIC (S. pneumoniae DSM-20566): 0.25 µg/mL; MIC E. coli WT-III [marRΔ74bp] [2]: 0.06 µg/mL
"CC(C)Oc1c(NC(=O)c2ccc(NC(=O)[C@H](CC(N)=O)NC(=O)c3ccc(NC(=O)c4ccc(C5(C(F)(F)F)N=N5)cc4)cc3)cc2)ccc(C(=O)Nc2ccc(C(=O)O)cc2)c1O [Compound 37, (S)-4-(4-(4-(4-amino-4-oxo-2-(4-(4-(3-(trifluoromethyl)-3H-diazirin-3-yl)benzamido)benzamido)butanamido)benzamido)-2-hydroxy-3-isopropoxybenzamido)benzoic acid]",,8,> 64,,,,,,,,,,,,,,,,16000,16,MIC (P. aeruginosa WT PA14; [6]): > 64 µg/mL; MIC (S. aureus Newman): > 64 µg/mL
"C/C(=C\c1ccc(O)cc1)C(=O)Nc1ccc(C(=O)N[C@@H](CC(N)=O)C(=O)Nc2ccc(C(=O)Nc3ccc(C(=O)Nc4ccc(C(=O)O)cc4)c(O)c3OC(C)C)cc2)cc1 [Compound 53, (S,E)-4-(4-(4-(4-amino-2-(4-(3-(4-hydroxyphenyl)-2-methylacrylamido)benzamido)-4-oxobutanamido)benzamido)-2-hydroxy-3-isopropoxybenzamido)benzoic acid]",0.06,0.06,0.25,0.25,0.13,1,> 64,0.25,0.13,0.5,> 64,> 64,2,1,2,0.13,0.5,0.25,,,MIC (S. epidermidis DSM-28765): 0.25 µg/mL; MIC (S. marcescens DSM-30121): 64 µg/mL; MIC (S. pneumoniae DSM-20566): 2 µg/mL; MIC E. coli WT-III [marRΔ74bp] [2]: 0.06 µg/mL
"CC(C)Oc1c(-n2cc(-c3ccc(NC(=O)[C@H](CC(N)=O)NC(=O)c4ccc(NC(=O)c5ccc(C#N)cc5)cc4)cc3)nn2)ccc(C(=O)Nc2ccc(C(=O)O)cc2)c1O [Compound 119, 4-(4-(4-(4-(4-amino-2-(4-(4-cyanobenzamido)benzamido)-4-oxobutanamido)phenyl)-1H-1,2,3-triazol-1-yl)-2-hydroxy-3-isopropoxybenzamido)benzoic acid]",,< 0.03,2,,,,,,,,,,,,,,,,1500,0.06,MIC (P. aeruginosa WT PA14; [6]): 8 µg/mL; MIC (S. aureus Newman): < 0.03 µg/mL
"C/C(=C\c1ccc(C#N)cc1)C(=O)Nc1ccc(C(=O)N[C@@H](CC(N)=O)C(=O)Nc2ccc(C(=O)Nc3ccc(C(=O)Nc4ccc(C(=O)O)c(O)c4OC(C)C)c(O)c3OC(C)C)cc2)cc1 [Compound 124, (S,E)-4-(4-(4-(4-Amino-2-(4-(3-(4-cyanophenyl)-2-methylacrylamido)benzamido)-4-oxobutanamido)benzamido)-2-hydroxy-3-isopropoxybenzamido)-2-hydroxy-3-isopropoxybenzoic acid]",,,,,,,,0.5,,,,,,,,,,0.06,200,0.125,

# Source: patent publication US11034648B2, “Cystobactamide derivatives” (priority 2017, dated 2021)
